Measurements as given in patent US20250248998A1, “LRRK2 Inhibitors” (Brenig Therapeutics, Inc., priority 2022, published 2025).

Assays:
LRRK2 WT [1] = target: T1, LRRK2 WT (Homo sapiens, UniProt Q5S007); assay: Cell-based NanoBRET target engagement assay in HEK293 cells transfected with LRRK2 WT-NanoLuc fusion vector; design: expressed in transfected cells; host or cells: HEK293 (ATCC); conditions: compound treatment 1 h
Description: (§1) Example C. Cell-Based NanoBRET Target Engagement Assay in 11EK293 Cells Transiently Transfected with LRRK2 WT- or LRRK2 (G2019S)-Nano Luc Fusion Vector
(§2) H1EK293 (ATCC) cells were transfected with […] LRRK2 WT or LRRK2 (G2019S) and 9 μg transfection carrier DNA. The transfected cells were treated with the compounds (starting at 1 μM, 10-dose with 3-fold dilution) and reference compounds CEP-701 or Staurosporine (starting at 1 μM, 10-dose with 3-fold dilution); compound treatment time: 1 h. LRRK2 WT and LRRK2 (G2019S) target engagement was measured by NanoBRET assay. Curve fits were performed only when % NanoBret signal at the highest concentration of compounds was less than […]. Assay format: 384-well format, 4000 cells/well. The IC50 values are shown in Table C, wherein “A” corresponds to IC50≤50.0 nM, “B” corresponds to 50.0 nM≤IC50<100.0 nM, “C” corresponds to 100.0 nM≤IC50.
Target sequence in this assay (Q5S007 whole entry, the tested form may be a part): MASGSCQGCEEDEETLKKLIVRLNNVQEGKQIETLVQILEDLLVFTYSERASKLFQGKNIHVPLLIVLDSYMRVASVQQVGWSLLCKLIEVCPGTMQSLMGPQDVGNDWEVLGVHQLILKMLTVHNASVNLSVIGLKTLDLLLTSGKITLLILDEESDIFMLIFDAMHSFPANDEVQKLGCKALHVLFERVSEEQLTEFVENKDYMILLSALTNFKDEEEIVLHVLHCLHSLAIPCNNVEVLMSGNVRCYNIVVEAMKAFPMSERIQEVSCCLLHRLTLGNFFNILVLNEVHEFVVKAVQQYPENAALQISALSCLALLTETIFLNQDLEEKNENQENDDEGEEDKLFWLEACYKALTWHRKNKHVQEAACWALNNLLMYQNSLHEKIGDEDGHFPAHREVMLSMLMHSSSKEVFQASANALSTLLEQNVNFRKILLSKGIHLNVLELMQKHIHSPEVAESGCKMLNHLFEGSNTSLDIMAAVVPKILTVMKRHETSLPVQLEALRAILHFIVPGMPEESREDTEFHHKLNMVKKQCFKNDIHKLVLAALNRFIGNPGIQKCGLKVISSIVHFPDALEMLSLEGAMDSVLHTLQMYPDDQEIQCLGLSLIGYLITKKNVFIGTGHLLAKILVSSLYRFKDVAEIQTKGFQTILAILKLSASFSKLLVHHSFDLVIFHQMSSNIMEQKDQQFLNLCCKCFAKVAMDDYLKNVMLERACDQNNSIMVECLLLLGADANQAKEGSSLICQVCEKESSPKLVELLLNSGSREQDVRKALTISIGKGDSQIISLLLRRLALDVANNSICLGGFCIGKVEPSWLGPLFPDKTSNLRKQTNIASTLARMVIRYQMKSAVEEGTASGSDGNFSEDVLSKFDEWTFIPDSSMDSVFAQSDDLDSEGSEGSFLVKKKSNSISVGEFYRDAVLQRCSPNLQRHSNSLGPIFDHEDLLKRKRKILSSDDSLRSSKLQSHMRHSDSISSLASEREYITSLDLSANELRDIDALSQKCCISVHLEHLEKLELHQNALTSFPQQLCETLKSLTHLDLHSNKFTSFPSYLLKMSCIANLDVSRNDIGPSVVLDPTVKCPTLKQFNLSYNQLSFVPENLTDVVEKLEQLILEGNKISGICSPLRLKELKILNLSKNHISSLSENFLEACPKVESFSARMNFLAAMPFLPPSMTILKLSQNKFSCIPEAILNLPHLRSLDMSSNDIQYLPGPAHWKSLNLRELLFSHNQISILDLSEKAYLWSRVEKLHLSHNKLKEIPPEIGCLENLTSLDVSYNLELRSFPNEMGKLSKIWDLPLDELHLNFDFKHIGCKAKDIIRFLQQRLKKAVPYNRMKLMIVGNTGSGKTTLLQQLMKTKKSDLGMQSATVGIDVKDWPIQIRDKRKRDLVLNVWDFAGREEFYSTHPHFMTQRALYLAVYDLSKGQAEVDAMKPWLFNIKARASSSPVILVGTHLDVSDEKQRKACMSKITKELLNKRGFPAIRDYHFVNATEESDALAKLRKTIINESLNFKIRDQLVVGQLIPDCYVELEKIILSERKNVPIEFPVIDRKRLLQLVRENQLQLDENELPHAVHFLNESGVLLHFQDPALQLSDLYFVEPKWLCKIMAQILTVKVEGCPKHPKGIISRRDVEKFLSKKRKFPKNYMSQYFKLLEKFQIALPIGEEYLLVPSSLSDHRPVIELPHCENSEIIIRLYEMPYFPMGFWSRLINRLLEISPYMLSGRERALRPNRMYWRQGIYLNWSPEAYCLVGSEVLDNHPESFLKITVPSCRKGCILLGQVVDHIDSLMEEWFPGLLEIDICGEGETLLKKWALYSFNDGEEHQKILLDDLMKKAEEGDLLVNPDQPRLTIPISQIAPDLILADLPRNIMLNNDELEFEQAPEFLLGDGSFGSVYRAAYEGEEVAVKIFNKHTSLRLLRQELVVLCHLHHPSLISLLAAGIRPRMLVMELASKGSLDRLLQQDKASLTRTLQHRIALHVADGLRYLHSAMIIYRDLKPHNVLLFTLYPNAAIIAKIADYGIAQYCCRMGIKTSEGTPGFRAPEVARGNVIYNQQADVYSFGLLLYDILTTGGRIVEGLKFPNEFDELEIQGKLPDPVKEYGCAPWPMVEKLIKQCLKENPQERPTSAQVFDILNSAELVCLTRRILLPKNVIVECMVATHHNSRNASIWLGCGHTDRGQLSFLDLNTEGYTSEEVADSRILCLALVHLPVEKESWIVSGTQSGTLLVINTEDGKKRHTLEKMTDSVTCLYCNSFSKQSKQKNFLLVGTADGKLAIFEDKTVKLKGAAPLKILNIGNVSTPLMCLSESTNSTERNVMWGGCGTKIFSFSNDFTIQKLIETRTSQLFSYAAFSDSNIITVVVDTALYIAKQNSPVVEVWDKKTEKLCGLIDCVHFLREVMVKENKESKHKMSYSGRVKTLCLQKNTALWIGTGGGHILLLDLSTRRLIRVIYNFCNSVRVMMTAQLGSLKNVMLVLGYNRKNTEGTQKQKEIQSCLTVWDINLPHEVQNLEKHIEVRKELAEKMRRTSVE

LRRK2 WT [2] = target: T1, LRRK2 WT; assay: Enzymatic activity inhibition against LRRK2 WT (ADP-Glo kinase assay, LRRKtide substrate); type: biochemical; design: purchased SignalChem Biotech, Inc. L10-11G-10; conditions: recombinant LRRK2 WT 36 nM, ATP, 1 h at rt, average Ki
Description: Example B. Primary Assays Used to Determine Potency of the LRRK2 Inhibition
Assay for Determining Enzymatic Activity Inhibition Against LRRK2 WT.
Compound activity was determined using recombinant LRRK2 WT protein (SignalChem Biotech, Inc., Cat #L10-11G-10) and LRRKtide substrate (SignalChem Biotech, Inc., Cat #L10-58) in an in vitro enzymatic reaction. The enzymatic reaction was carried out in assay buffer (40 mM TRIS-HCl pH 7.4, 20 mM MgCl2, 0.05 mM DTT, 0.1 mg/mL BSA). The compounds were dispensed into a 384 well Diamond Well Plate (Axigen, Cat #P-384-120SQ-C-S) using the Biomek FX liquid handling system at 80× solutions of compounds in DMSO. The 2× Protein-Substrate mix (final concentration 36 nM of LRRK2 WT and 0.8 μg/μL of LRRKtide) was prepared in the 1× Assay buffer and 4 μL of mixture per well was added into the 384-well white Reaction plate with NBS (Corning, Cat #CLS4513). The 4 μL of LRRKtide substrate w/o LRRK2 WT in the 1× buffer was used for a negative control. Plates were centrifuged for 1 min at 200 g. Next the compounds were added to Reaction plate using Biomek station via following steps: 1 μL of 80× compounds (in DMSO) were mixed thoroughly with 39 μL of 2×10 μM ATP in Assay Buffer, then 4 μL of this mixture was added to Reaction plate with 4 μL of Protein-Substrate mix. Plates were centrifuged for 1 min at 200 g and incubated for 1 hour at rt. Then, 4 μL per well of ADP-Glo reagent (Promega, ADP-Glo™ Kinase Assay, Cat #V9102) was added. Plates were incubated for 30 minutes at rt. Then, 8 μL per well of Kinase detection reagent (Promega, ADP-Glo™ Kinase Assay, Cat #V9102) was added and the luminescence signal was measured with a microplate reader. The % inhibition was then used to calculate the Ki values. The average Ki values are shown in Table B, wherein “A” corresponds to Ki<10.0 nM, “B” corresponds to 10.0 nM K Ki<20.0 nM, “C” 20.0 nM K Ki<50.0 nM, “D” corresponds to 50.0 nM K Ki<100.0 nM and “E” corresponds to Ki>100.0 nM.
Target sequence in this assay (Q5S007 970-2527 limits assumed): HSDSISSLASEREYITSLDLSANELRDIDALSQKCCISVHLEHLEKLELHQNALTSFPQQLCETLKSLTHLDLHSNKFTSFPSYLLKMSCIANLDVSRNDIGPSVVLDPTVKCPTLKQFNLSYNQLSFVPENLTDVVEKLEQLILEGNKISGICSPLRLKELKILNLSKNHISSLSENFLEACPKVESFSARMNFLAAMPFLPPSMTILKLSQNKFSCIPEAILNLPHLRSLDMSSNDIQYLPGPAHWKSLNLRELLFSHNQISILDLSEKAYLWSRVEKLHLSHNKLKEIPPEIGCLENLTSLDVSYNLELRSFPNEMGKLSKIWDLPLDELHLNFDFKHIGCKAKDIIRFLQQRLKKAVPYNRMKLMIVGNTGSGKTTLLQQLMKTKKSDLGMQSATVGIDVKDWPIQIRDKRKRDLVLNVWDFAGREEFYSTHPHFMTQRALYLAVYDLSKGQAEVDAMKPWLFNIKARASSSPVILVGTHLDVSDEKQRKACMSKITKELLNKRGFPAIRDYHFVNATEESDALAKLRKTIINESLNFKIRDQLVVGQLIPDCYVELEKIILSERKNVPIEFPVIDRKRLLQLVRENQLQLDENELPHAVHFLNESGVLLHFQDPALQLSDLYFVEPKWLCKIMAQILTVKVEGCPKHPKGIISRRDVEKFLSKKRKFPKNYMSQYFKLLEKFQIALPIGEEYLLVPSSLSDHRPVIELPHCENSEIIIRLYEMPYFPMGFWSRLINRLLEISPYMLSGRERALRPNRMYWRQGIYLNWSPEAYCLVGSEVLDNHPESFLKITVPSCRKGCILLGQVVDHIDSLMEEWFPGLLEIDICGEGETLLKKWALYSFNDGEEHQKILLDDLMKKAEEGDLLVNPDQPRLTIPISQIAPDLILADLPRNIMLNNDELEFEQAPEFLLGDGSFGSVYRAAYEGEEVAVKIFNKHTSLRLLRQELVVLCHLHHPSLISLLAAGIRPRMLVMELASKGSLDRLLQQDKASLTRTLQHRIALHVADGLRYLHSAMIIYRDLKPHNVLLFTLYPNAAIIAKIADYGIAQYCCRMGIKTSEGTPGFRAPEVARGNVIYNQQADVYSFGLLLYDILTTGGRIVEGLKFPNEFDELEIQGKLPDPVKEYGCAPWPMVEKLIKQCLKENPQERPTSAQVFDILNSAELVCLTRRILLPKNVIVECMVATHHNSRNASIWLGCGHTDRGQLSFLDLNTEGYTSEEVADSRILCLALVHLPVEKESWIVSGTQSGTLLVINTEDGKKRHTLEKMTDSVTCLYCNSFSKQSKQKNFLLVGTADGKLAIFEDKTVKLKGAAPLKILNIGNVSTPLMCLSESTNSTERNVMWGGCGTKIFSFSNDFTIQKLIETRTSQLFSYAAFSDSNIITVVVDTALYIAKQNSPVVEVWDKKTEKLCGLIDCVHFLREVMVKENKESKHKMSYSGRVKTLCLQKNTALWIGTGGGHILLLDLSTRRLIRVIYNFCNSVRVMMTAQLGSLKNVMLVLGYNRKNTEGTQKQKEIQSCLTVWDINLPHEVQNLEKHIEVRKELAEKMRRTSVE

LRRK2[G2019S] [3] = target: T2, LRRK2[G2019S] (Homo sapiens, UniProt Q5S007, G2019S); assay: Enzymatic activity inhibition against LRRK2[G2019S] (ADP-Glo kinase assay, LRRKtide substrate); type: biochemical; design: purchased SignalChem Biotech, Inc. L10-12GG-10; conditions: recombinant LRRK2[G2019S] 36 nM, ATP, 1 h at rt, average Ki
Description: Example A. Primary Assays Used to Determine Potency of the LRRK2 Inhibition
Assay for Determining Enzymatic Activity Inhibition Against LRRK2[G2019S].
Compound activity was determined using recombinant LRRK2[G2019S] protein (SignalChem Biotech, Inc., Cat #L10-12GG-10) and LRRKtide substrate (SignalChem Biotech, Inc., Cat #L10-58) in an in vitro enzymatic reaction. The enzymatic reaction was carried out in assay buffer (40 mM TRIS-HCl pH 7.4, 20 mM MgCl2, 0.05 mM DTT, 0.1 mg/mL BSA). The compounds were dispensed into a 384 well Diamond Well Plate (Axigen, Cat #P-384-120SQ-C-S) using the Biomek FX liquid handling system at the 80× solutions of compounds in DMSO. The 2× Protein-Substrate mix (final concentration 36 nM of LRRK2[G2019S] and 0.8 μg/μL of LRRKtide) was prepared in 1× Assay buffer and 4 μL of mixture per well was added into the 384-well white Reaction plate with NBS (Corning, Cat #CLS4513). The 4 μL of LRRKtide substrate w/o LRRK2[G2019S] in the 1× buffer was used for a negative control. Plates were centrifuged for 1 min at 200 g. Next the compounds were added to the reaction plate using Biomek station via following steps: 1 μL of 80× compounds (in DMSO) were mixed thoroughly with 39 μL of 2×10 μM ATP in Assay Buffer, then 4 μL of this mixture was added to Reaction plate with 4 μL of Protein-Substrate mix. Plates were centrifuged for 1 min at 200 g and incubated for 1 h at rt. Then, 4 μL per well of ADP-Glo reagent (Promega, ADP-Glo™ Kinase Assay, Cat #V9102) was added. Plates were incubated for 30 min at rt. Then, 8 μL per well of Kinase detection reagent (Promega, ADP-Glo™ Kinase Assay, Cat #V9102) was added and the luminescence signal was measured with a microplate reader. The luminescence signal was detected with CLARIOstar Plus (BMG LABTECH) microplate reader. The % inhibition was then used to calculate the Ki values. The average Ki values are shown in Table A, wherein “A” corresponds to Ki<5.0 nM, “B” corresponds to 5.0 nM≤Ki<10.0 nM, “C” 10.0 nM≤Ki<50.0 nM, “D” corresponds to 50.0 nM≤Ki<100.0 nM and “E” corresponds to Ki>100.0 nM.
Target sequence in this assay (Q5S007 970-2527 G2019S limits assumed): as the sequence (Q5S007 970-2527 limits assumed) above, with G1050S counted along it

LRRK2[G2019S] [4] = target: T2, LRRK2[G2019S]; assay: Cell-based NanoBRET target engagement assay in HEK293 cells transfected with LRRK2 (G2019S)-NanoLuc fusion vector; design: expressed in transfected cells; host or cells: HEK293 (ATCC); conditions: compound treatment 1 h
Description: as §1, §2
Target sequence in this assay (Q5S007 whole entry G2019S): as the sequence (Q5S007 whole entry, the tested form may be a part) above, with G2019S counted along it

SMILES | IC50 (LRRK2 WT [1]) [nM] | Ki (LRRK2 WT [2]) [nM] | Ki (LRRK2[G2019S] [3]) [nM] | IC50 (LRRK2[G2019S] [4]) [nM]
Cn1nc(-c2n[nH]c3ccc(OC4CCC4)cc23)cc(N2CCOCC2)c1=O [Compound 28, 6-[5-(cyclobutoxy)-1H-indazol-3-yl]-2-methyl-4-morpholino-pyridazin-3-one] | ≥ 100 | ≤ 10 | ≤ 5 | ≥ 100
Cn1nc(-c2n[nH]c3ccc(OC4CC4)cc23)cc(N2CCOCC2)c1=O [Compound 30, 6-[5-(cyclopropoxy)-1H-indazol-3-yl]-2-methyl-4-morpholino-pyridazin-3-one] | ≥ 100 | ≤ 10 | ≤ 5 | ≥ 100
CC(C)Oc1ccc2[nH]nc(-c3cnnc(N4CCOCC4)c3)c2c1 [Compound 4, 4-[5-(5-isopropoxy-1H-indazol-3-yl)pyridazin-3-yl]morpholine] | 50 to 100 | ≤ 10 | ≤ 5 | ≤ 50
Cn1nc(-c2n[nH]c3ccc(S(C)(=O)=O)cc23)cc(N2CCOCC2)c1=O [Compound 33, 2-methyl-6-(5-methylsulfonyl-1H-indazol-3-yl)-4-morpholino-pyridazin-3-one] | – | 50 to 100 | > 100 | –
CC(C)Oc1ccc2[nH]nc(-c3cnnc(N4CCCC4)c3)c2c1 [Compound 5, 5-isopropoxy-3-(6-pyrrolidin-1-ylpyridazin-4-yl)-1H-indazole] | – | 10 to 20 | ≤ 5 | –
C[C@@H]1CN(c2cc(-c3n[nH]c4ccc(OC5(C)CC5)cc34)nn(C3CC3)c2=O)C[C@H](C)O1 [Compound 51, 2-cyclopropyl-4-[(2S,6R)-2,6-dimethylmorpholin-4-yl]-6-[5-(1-methylcyclopropoxy)-1H-indazol-3-yl]pyridazin-3-one] | ≤ 50 | ≤ 10 | ≤ 5 | ≤ 50
Cn1nc(-n2ncc3ccc(C(C)(C)C#N)cc32)cc(N2CCOCC2)c1=O [Compound 43, 2-methyl-2-[1-(1-methyl-5-morpholino-6-oxo-pyridazin-3-yl)indazol-6-yl]propanenitrile] | – | 50 to 100 | > 100 | –
Cc1cc2[nH]nc(-c3cc(N4CCOCC4)c(=O)n(C)n3)c2cc1OC(C)C [Compound 26, 6-(5-isopropoxy-6-methyl-1H-indazol-3-yl)-2-methyl-4-morpholino-pyridazin-3-one] | ≥ 100 | ≤ 10 | 10 to 50 | ≥ 100

Now from value to compound:

IC50 (LRRK2 WT [1]) [nM] | Ki (LRRK2 WT [2]) [nM] | Ki (LRRK2[G2019S] [3]) [nM] | IC50 (LRRK2[G2019S] [4]) [nM] | SMILES
50 to 100 | ≤ 10 | 5 to 10 | ≤ 50 | CC(C)Oc1ccc2[nH]nc(-c3cc(N4CCOCC4)c(=O)n(C4CCCC4)n3)c2c1 [Compound 16, 2-cyclopentyl-6-(5-isopropoxy-1H-indazol-3-yl)-4-morpholino-pyridazin-3-one]
≥ 100 | ≤ 10 | 5 to 10 | 50 to 100 | CC(C)Oc1ccc2[nH]nc(-c3cc(N4CCOCC4)c(=O)n(C(C)C)n3)c2c1 [Compound 21, 6-(5-isopropoxy-1H-indazol-3-yl)-2-isopropyl-4-morpholino-pyridazin-3-one]
≥ 100 | ≤ 10 | ≤ 5 | 50 to 100 | CCn1nc(-c2n[nH]c3ccc(OC(C)C)cc23)cc(N2CCOCC2)c1=O [Compound 23, 2-ethyl-6-(5-isopropoxy-1H-indazol-3-yl)-4-morpholino-pyridazin-3-one]
– | > 100 | 50 to 100 | – | Cn1nc(-c2n[nH]c3ccc(OC(F)F)cc23)cc(N2CCOCC2)c1=O [Compound 32, 6-[5-(difluoromethoxy)-1H-indazol-3-yl]-2-methyl-4-morpholino-pyridazin-3-one]
50 to 100 | ≤ 10 | ≤ 5 | ≤ 50 | CC(C)Oc1ccc2[nH]nc(-c3cc(N4CCOCC4)c(=O)n(C4CC4)n3)c2c1 [Compound 19, 2-cyclopropyl-6-(5-isopropoxy-1H-indazol-3-yl)-4-morpholino-pyridazin-3-one]
– | ≤ 10 | 10 to 50 | – | Cc1nnc(-c2n[nH]c3ccc(OC(C)C)cc23)cc1N1CCOCC1 [Compound 10, 4-[6-(5-isopropoxy-1H-indazol-3-yl)-3-methyl-pyridazin-4-yl]morpholine]
≥ 100 | ≤ 10 | 5 to 10 | ≥ 100 | CC(C)Cn1nc(-c2n[nH]c3ccc(OC(C)C)cc23)cc(N2CCOCC2)c1=O [Compound 18, 2-isobutyl-6-(5-isopropoxy-1H-indazol-3-yl)-4-morpholino-pyridazin-3-one]
